According to patent publication US8703936B2, “Compositions and methods for modification of biomolecules” (The Regents of the University of California, priority 2010, dated 2014):
Several values for one entry are separate records, joined by “and”; a condition that tells them apart may be missing. Equal entries are not always repeated. Values belong to the molecule of their own block, whether it stands above or below them.

Assays:
[1] = tested on: CHO cells grown with Ac4ManNAz (azide-labeled glycans); assay: Cell-surface labeling of azido glycans on CHO cells and imaging by fluorescence microscopy; format: cell-based, Chinese hamster
Description: BARAC-Fluor (compound 17) was evaluated as a reagent for direct fluorescence imaging of live Chinese hamster ovary (CHO) cells. CHO cells grown either in the presence or absence of 50 μM Ac4ManNAz were treated with […] BARAC-Fluor (compound 17) for 5 min at rt, washed and then imaged (FIG. 9(a)-(h)).
CHO cells were incubated for 3 days in medium containing 50 μM Ac4ManNAz in an eight-well LabTek II chambered cover glass (Nunc). The medium was poured off, and the cells were washed three times with 200 μl of FACS buffer. The cells then were treated with a solution of BARAC-Fluor, diluted from a 1 mM stock solution in DMSO, in FACS buffer for 5 minutes at 5 μM at room temperature. The cells were also treated with Hoechst 33342 dye to stain the nucleus (1:1,000 dilution in medium of a 1 mg/ml stock solution in DMSO) as soon as possible after the addition of BARAC-Fluor. The cells washed four times with 200 μl of FACS buffer, and imaged at room temperature.
For the no-wash experiment the cells were treated as before, but were incubated in a 250 nM solution of BARAC-Fluor in FACS-buffer. After 25 minutes at room temperature Hoechst 33342 dye (1:1,000 dilution in medium of a 1 mg/ml stock solution in DMSO) was added. After an additional 5 minutes, the cells were imaged without washing away excess reagent. […]

[2] = tested on: Jurkat cells treated with Ac4ManNAz (cell-surface azido sialic acids, SiaNAz)
Description: Cultured Jurkat cells were treated with peracetylated N-azidoacetyl mannosamine (Ac4ManNAz) to introduce the corresponding azido sialic acids (SiaNAz) into their cell-surface glycoproteins and lipids.
Jurkat cells were incubated in untreated media or media containing 25 μM Ac4ManNAz. After 3 d, the cells were twice concentrated (500×g, 3 min, 4° C.) and resuspended in 10 mL FACS buffer (PBS containing 1% FCS, 2×10 mL) and cells (approx 350,000 per a well) were placed in a 96 well V-bottom plate. The cells were concentrated by centrifugation (2500×g, 3 min, 4° C.), resuspended in 200 μL cold FACS buffer, and again concentrated by centrifugation (2500×g, 3 min, 4° C.). […] After 1 h, the cells were thrice concentrated by centrifugation (2500×g, 3 min, 4° C.) and resuspended in 200 μL cold FACS buffer. Following and additional concentration by centrifugation (2500×g, 3 min, 4° C.), cells were resuspended in FACS buffer (100 μL) containing FITC-avidin (1:200 dilution of 1 mg/mL stock, Sigma-Aldrich) and incubated in the dark at 4° C. for 15 min. Following the incubation, cells were concentrated by centrifugation, resuspended in 200 μL cold FACS buffer, concentrated by centrifugation, and another FITC-avidin incubation was performed. After the second FITC-avidin labeling, the cells were thrice concentrated by centrifugation (2500×g, 3 min, 4° C.) and resuspended in 200 μL cold FACS buffer. The cells were then diluted to 400 μL for flow cytometry analysis. Flow cytometry was performed on a BD Biosciences FACSCalibur flow cytometer equipped with a 488-nm argon laser. All flow cytometry experiments were performed with three replicate samples.
Jurkat cells were incubated in the presence or absence of 25 μM Ac4ManNAz for 3 d. […] MFI=mean fluorescence intensity and has arbitrary units (Au).
Jurkat cells were incubated with (+Az) or without (−Az) 25 M Ac4ManNAz for 3 days. The cells were labeled with 1 μM cyclooctyne-biotin for various times and then treated with FITC-avidin. […] The degree of labeling was quantified by flow cytometry. The level of fluorescence was reported in mean fluorescence intensity (MFI, arbitrary unit). Error bars represent the standard deviation of three replicate experiments. […] MFI reported as difference between signal of cells +Az and signal of cells −Az.

Jurkat cells = settings: 1 μM, 1 h at 25° C., 7-AAD (FIG. 5)
Description: Jurkat cells were incubated in the presence (+Az, black bar) or absence (−Az, gray bar) of Ac4ManNAz for 3 d. […] Prior to flow cytometry analysis, half the cells were treated with 7-amino-actinomycin D (7-AAD) following the procedure reported at http://www.bdbiosciences.com/external_files/pm/doc/tds/cell_bio/live/web_enabled/68981E—559925.pdf. The samples were diluted and analyzed by flow cytometry. The error bars represent standard deviations from three replicate samples.
In all plots, the x-axis indicates the degree of cell-surface glycan labeling as measured by FITC fluorescence (FL1). For the plots shown if FIG. 6(a)-(d), the y-axis represents the degree of 7-AAD (FL3, cell viability marker).

[3] = Reaction rate of BARAC with benzyl azide (1H NMR kinetics); format: physicochemical
Description: The reactivity of BARAC (compound 15) was studied using benzyl azide as a model substrate. The second-order rate constant in acetonitrile at room temperature (rt) was 0.96 M^−1s^−1 (see FIG. 1), over 12-fold higher than the rate constant for DIFO under identical conditions and over 450 times higher than for an unactivated cyclooctyne. The half-life for the reaction of equimolar amounts of BARAC with benzyl azide at 10 mM was about 45 s at rt.
The reaction of BARAC (compound 15) and benzyl azide was monitored by ^1H NMR for 30 min. at 25° C. BARAC and benzyl azide were separately dissolved in CD3CN and mixed together in a 1:1 ratio at concentrations at 10 mM. A 2:1 ratio was used to determine the exact ratio of reagents based on remaining starting material upon completion of the reaction. The percent conversion was calculated by the disappearance of BARAC and benzyl azide relative to the formation of product as determined by integration. No products other than the two regioisomers of addition were apparent by ^1H NMR. The triazole isomers were produced in a ˜1:1 ratio. The second-order rate constant was determined by plotting 1/[compound 15] versus time. The plot was fit to a linear regression and the slope corresponds to the second-order rate constant. Shown in FIG. 1 are data from four replicate experiments.

[4] = Reaction rate of BARAC with 2-azido-N-isopropylacetamide (1H NMR kinetics); format: physicochemical; settings: CD3CN, 25° C., 1:1 at 9.2 mM, three replicates
Description: The reaction of BARAC (compound 15) and 2-azido-N-isopropylacetamide was monitored by ^1H NMR for 30 min. at 25° C. BARAC and the azidoacetamide were separately dissolved in CD3CN and mixed together in a 1:1 ratio at concentrations at close to 10 mM (9.2 mM). Hexamethyldisilane (approx 0.3 equiv) was used as an internal standard. The percent conversion was calculated by the ratio between the formation of products and hexamethyldisilane as determined by integration. No products other than the regioisomers of addition were apparent by ^1H NMR. The ratio of triazole isomers is complicated by rotamers. The second-order rate constant was determined by plotting 1/[compound 15] versus time. The plot was fit to a linear regression and the slope corresponds to the second-order rate constant. Shown are data from three replicate experiments.

[5] = Potential background reaction of BARAC with glutathione; format: physicochemical; settings: 5 mM glutathione in CD3CN:D2O (1:2), 2 mM BARAC, rt
[6] = Stability to chromatography and storage; format: physicochemical; settings: traditional chromatography; storage at room temperature
Excerpt: Oxidation of indole (compound 10) with excess m-CPBA opened the central rings to give the cyclic keto-amide (compound 11), which was unstable to silica-gel purification. These reaction conditions left the terminal alkene untouched. Treatment of the potassium enolate of ketone (compound 11) with trifluoromethanesulfonyl anhydride gave compound 12. Selective reaction of the terminal alkene with a nitrile oxide generated in situ from chlorooxime (compound 13) installed a linker for conjugation to a probe molecule as reported by Huisgen, R. and Gutsmiedl, et al. Huisgen, R. Angew. Chem. Int. Ed., (1963), 2, 565-598; and Gutsmiedl, K.; Wirges, C. T.; Ehmke, V.; Carell, T. Org. Lett., 2009, 11, 2405-2408. Reaction of compound 14 with CsF introduced the strained alkyne in under 30 min at rt. The synthesis of BARAC (compound 15) from compound 9 was accomplished in 6 steps in 18% overall yield (see FIG. 11).

Molecule: O=C(OCc1ccc(C2=NOC(CN3C(=O)c4ccccc4C#Cc4ccccc43)C2)cc1)N1CCN(C(=O)c2ccccc2-c2c3ccc(=O)cc-3oc3cc(O)ccc23)CC1 (stereo not drawn) [BARAC-Fluor]
labeling in no-wash experiment ([1]; 250 nM, 30 min at rt, imaged without washing (FIG. 9(i)-(p))): significant labeling above the background
cell surface fluorescence of azide-labeled cells ([1]; 5 μM, 5 min at rt, washed, 50 μM Ac4ManNAz (FIG. 9(a)-(h))): significant cell surface fluorescence

Molecule: BARAC-biotin
cell labeling at low concentration ([2]; 50 nM, 1 h, Jurkat (FIG. 3)): significant cell labeling
labeling compared with DIFO-biotin and DIBO-biotin ([2]; 1 μM cyclooctyne-biotin, after 1 h (FIG. 8(b))): more labeling than DIFO-biotin and DIBO-biotin
fold higher signal than either DIFO-biotin or DIBO-biotin ([2]; 1 μM, after 1 min (FIG. 8(c))): 10 fold
azide-specific cell labeling ([2]; Jurkat ±25 μM Ac4ManNAz 3 d, reagent 1 h, versus FITC-avidin alone (FIG. 3)): robust azide-specific labeling with no significant background labeling
cytotoxicity compared to cells treated with no cyclooctyne reagent (Jurkat cells): not accompanied by any cytotoxicity

half-life at 2 mM [5]: 24 h
Molecule: O=C1c2ccccc2C#Cc2ccccc2N1CC1CC(c2ccc(CO)cc2)=NO1 (stereo not drawn) [BARAC]
second-order rate constant ([3]; benzyl azide, acetonitrile (CD3CN), rt (25° C.), 1:1 at 10 mM): 0.96 M⁻¹ s⁻¹ and 0.96 ± 0.04 M⁻¹ s⁻¹
times higher rate constant than an unactivated cyclooctyne ([3]; versus unactivated cyclooctyne): over 450 times
second-order rate constant [4]: 0.64 ± 0.06 M⁻¹ s⁻¹
stability [6]: stable to traditional chromatography and storage at room temperature
